Data from patent publication US20090280110A1, “Cell Model for Alzheimer's Disease Pathology” (UNIVERSITY OF VIRGINIA PATENT FOUNDATION, priority 2006, published 2009).
Entries after “also recorded” stand apart in the source; their conditions may differ.

Experiments:
[1] = system: microtubules in primary hippocampal neurons; experiment: Triton X-100 extraction partitioning soluble and polymerized tubulin, immunoblotting; format: cell-based, rat; conditions: 2 hours
Experimental: Microtubule Extraction/Blotting: Primary hippocampal neurons were treated with 1-3 μM pre-fibrillar or fibrillar Aβ42. Cells were washed with PBS, and extracted with Triton X-100 in a microtubule stabilizing buffer (Black et al., 1996). Briefly, cells were incubated with PHEM buffer (60 mM PIPES pH 6.9, 25 mM HEPES, 10 mM EGTA, 2 mM MgCl2) with 10 μM taxol, and 0.2% Triton X-100 for 5 minutes. The buffer was collected and centrifuged for 5 minutes at maximum speed in an Eppendorf model 5415 table top centrifuge, and the supernatant removed and added to sample buffer. An equivalent volume of PHEM buffer and sample buffer was added to the dish, and this sample was added to the pellet from the spin. Equal volumes of supernatants and pellets, which respectively contained soluble and polymerized tubulin (Black et al., 1996), were then analyzed by immunoblotting with DM1α monoclonal anti-α-tubulin (Sigma) and monoclonal tau-5. DM1α (Blose et al., 1984) and tau-5 (Loomis et al., 1990) recognize all isoforms or α-tubulin and tau, respectively, independently of post-translational modifications. Quantitation of scanned immunoreactive α-tubulin bands was performed using the public domain image processing software, Image J at the NIH website.

CV-1 cell microtubules = experiment: Time lapse fluorescence microscopy of microtubules in transfected CV-1 cells treated with Aβ; format: cell-based, African green monkey
Experimental: (§1) Cell Culture: CV-1 (African green monkey kidney) cells were cultured in DMEM (Dulbecco's modified Eagle's Medium; GIBCO) supplemented with 10% Cosmic Calf Serum (Hyclone) and 50 μg/ml gentamycin. Cells were transiently transfected using Fugene (Roche) with cDNAs for the longest human isoform of tau, or the projection domain (amino acids 1-248) of tau linked at their C-terminals to eCFP or eYFP (Clontech); with YFP-α-tubulin (Clontech); or with GFP-MAP2c or GFP-MAP2c/tau chimeras (Roger et al., 2004), which were generous gifts of Dr. Shelley Halpain. Primary cortical neurons were purchased from Genlantis and cultured according to their guidelines. Primary hippocampal neurons (Wisco et al., 2003) were grown for at least 8 days prior to Aβ treatment. The tau siRNA (Darmacon SMARTpool) and control scrambled siRNA (Darmacon non-specific duplex II) were transfected into primary hippocampal neurons using the rat neuron Nucleofection system (Amaxa) and program G-13 (Qiang et al., 2006). Cells were cultured for 4 days after Nucleofection, and then were exposed to Aβ.
Aβ treatment: Previously described methods were used to synthesize (Burdick et al., 1992) and resuspend (Kayed et al., 2003) Aβ42 and Aβ40. The Aβ was added to cells cultured in serum-free DMEM to final concentrations from 0.1-5 μM. Pre-fibrillar Aβ was used in the first and second days following resuspension, while fibrillar Aβ was used following at least 7 days of stirring.
Microscopy: Confocal live cell imaging and immunofluorescence microscopy were performed on a Zeiss Axiovert 100 using Openlab 4.0 (Improvision) software, as previously described (Mateer et al., 2002). For electron microscopy, primary cortical and hippocampal neurons were grown on glass coverslips, treated with Aβ42, and fixed in 2.5% glutaraldehyde+0.5% tannic acid in 0.1 M cacodylate buffer pH 7.4. Cells on coverslips were dehydrated and capsule embedded in EPON, and the glass coverslip was removed from the EPON by alternating liquid nitrogen and warm water submersion of the capsule. Sectioned samples were viewed on a JEOL JEM 1010 electron microscope at 80 kV and images captured using a SA1-12c 16 megapixel cooled CCD (Scientific Instruments and Applications, Inc).

[2] = system: primary rat cortical neurons; experiment: Immunofluorescence and electron microscopy of neurons treated with Aβ42; format: cell-based; conditions: 1 μM
Experimental: as §1
Microscopy: Confocal live cell imaging and immunofluorescence microscopy were performed on a Zeiss Axiovert 100 using Openlab 4.0 (Improvision) software, as previously described (Mateer et al., 2002). […]

tau = experiment: Western blotting with phosphorylation-sensitive anti-tau antibodies (PHF-1, AT180, tau-1); format: cell-based; conditions: primary rat hippocampal neurons, 1 μM, 2 hours
Source text: Antibodies: Tau-5, Tau-1, and R1 tau were generous gifts of Dr. Lester Binder, and PHF-1 was kindly provided by Dr. Peter Davies. AT180 (Pierce Endogen), DM1α (Sigma Chemical), Actin C4 (Chemicon), fluorescently tagged goat anti-mouse IgG and goat anti-rabbit (Southern Biotech), and HRP-labeled goat anti-mouse IgG (KPL) were acquired from the indicated commercial sources.

| Substance | tubulin polymerized ([1]; primary hippocampal neurons, 3 μM, about 90% in cells not exposed) | microtubule integrity in tau-expressing cells (CV-1 cell microtubules; CV-1 cells expressing tau-CFP, as much as 5 μM, more than two hours) | microtubules in tau-expressing cells (CV-1 cell microtubules; tau-expressing CV-1 cells, 3 μM, 0-140 minutes (FIG. 1c)) | change in tubulin levels in response to Aβ42 in tau siRNA-treated cells ([1]; primary neurons with tau siRNA, 2 μM, compared to tau expressing cells) | neurite morphology by immunofluorescence ([2]; 30 minutes) | neurite microtubules by electron microscopy ([2]; 2 hours) | AD-like tau phosphorylation (tau) | time after addition until tau dissociated from microtubules (CV-1 cell microtubules; CV-1 cells co-expressing tau-CFP and YFP-tubulin, 0.1-3 μM) | concentration added to culture media at which tau dissociated from microtubules, which completely disassembled soon thereafter (CV-1 cell microtubules; CV-1 cells co-expressing tau-CFP and YFP-tubulin, within 1-2 hours) | microtubule integrity in cells without tau (CV-1 cell microtubules; CV-1 cells expressing YFP-tubulin but not tau-CFP, as much as 3 μM, more than two hours) | effect on tau and microtubules in tau-expressing cells (CV-1 cell microtubules; CV-1 cells with tau-CFP and YFP-tubulin, 1 μM, 0-120 minutes (FIG. 1a)) | microtubules in cells expressing the N-terminal arm (projection domain) of tau coupled to CFP (CV-1 cell microtubules; CV-1 cells, 1 μM) | microtubules in cells expressing GFP-tau chimera (CV-1 cell microtubules; CV-1 cells, 1 μM, less than an hour) | microtubules in cells expressing GFP-MAP2c chimera (CV-1 cell microtubules; CV-1 cells, 1 μM, more than 2 hours) | microtubule integrity in cells expressing GFP-MAP2c (CV-1 cell microtubules; CV-1 cells, 1 μM, over 2 hours) |
| --- | --- | --- | --- | --- | --- | --- | --- | --- | --- | --- | --- | --- | --- | --- | --- |
| fibrillar Aβ42: synthesized Aβ42 peptide used following at least 7 days of stirring | 65% | unaffected | unaffected | – | – | – | – | – | – | – | – | – | – | – | – |
| pre-fibrillar Aβ42: synthesized Aβ42 peptide used in the first and second days following resuspension; monomers to oligomers | – | – | – | no change | swollen varicosities | fewer, less organized microtubules; also recorded: numerous varicosities that were filled with membrane-bound organelles and lacked microtubules | did not cause increased AD-like tau phosphorylation | 1 to 2 h | 0.1 to 3 µM | remained intact | caused tau to dissociate from microtubules, and the microtubules to disassemble soon thereafter | depolymerized | depolymerized | remained intact | did not cause any apparent loss of microtubule integrity; also recorded: remained intact |
